{"source": "patent US20240027453A1", "about": "“METHOD FOR DETECTION AND QUANTITATIVE MONITORING OF INFECTIONS WITH HERPESVIRUSES” (The Trustees of Princeton University, priority 2020, published 2024)", "test_system": "HCMV", "format": "cell-based", "protocol": "In example herpesvirus PRM assay methods shown herein, cell pellets were lysed in 2% SDS, 100 mM NaCl, 0.5 mM EDTA, 50 mM Tris, pH 8.2, and 50 μg of protein was reduced and alkylated with 25 mM TCEP and 50 mM CAM respectively for 20 min at 70° C. Proteins were then precipitated via methanol chloroform precipitation (Wessel & Flugg, Anal Biochem. 138(1):141-143, 1984), resuspended in 50 mM HEPES, pH 8.2 and digested overnight with trypsin (50:1 protein:enzyme w/w ratio). Digested peptides were desalted by SDB-RPS StageTip as previously described (Lum et al., Cell Syst., 7(6):[…], 2018; Greco et al., Methods Mol Biol 1410:39-63, 2016; Federspiel & Cristea, Methods Mol Biol., 1977:115-143, 2019).\nPeptides (1.0 μg on column) were analyzed by LC-MS/MS using a Dionex Ultimate 3000 UHPLC coupled online to an EASYSpray ion source and a Q Exactive HF. Peptides were separated on an EASYSpray C18 column (75 μm×25 cm) heated to 50° C. using a linear gradient of 5% B to 32% B over 60 min at a flow rate of 250 nL/min and were ionized at 1.7 kv. Mobile phase A consisted of 0.1% FA in H2O and mobile phase B consisted of 0.1% FA, 2.9% H2O in ACN.\nThe PRM method was controlled by a peptide inclusion list with retention time windows of 6 min for selected precursor ions.\nThe PRM assay was developed and analyzed using the open-source software Skyline (Maclean et al., Bioinformatics 26(7):966-968, 2010). Summed area under the curve of 3-4 transitions per peptide was used for quantitation. Targeted peptides were normalized to host protein loading control peptides. Peptide values for each sample were scaled to the average of each peptide across all runs. The average of multiple peptides was used as the inferred value for the protein measurement when more than one peptide was quantified (Federspiel et al., PLoS Biol. 17(9):e3000437. Doi: 10.1371/journal.pbio.3000437). PRM quantitation data were graphed using the Python Seaborn and Matplotlib libraries.\nMRC5 primary human fibroblasts (HFs) (ATCC CCL-171) were used as the model system for HSV-1 and HCMV infections and were cultured in complete growth medium (DMEM supplemented with 10% fetal bovine serum and 1% penicillin-streptomycin antibiotics) at 37° C. and 5% CO2. iSLK.219 cells harboring latent KSHV (a gift from Dr. Britt Glaunsinger, University of California, Berkeley) were grown in complete growth medium supplemented with 500 μg/ml hygromycin (ThermoFisher Scientific, 10687010) at 37° C. and 5% CO2. All cells were used for experiments within a maximum of 10 passages.\nWild type HSV-1 strain 17+ (a gift from Beate Sodeik, Hannover Medical School, Hannover, Germany) was propagated as previously described (Diner et al., 2015). Briefly, PO stocks were generated by electroporating pBAC-HSV-1 into U-2 OS cells. […] In a similar manner, wild type HCMV strain AD169 was produced from BAC electroporation into HFs and working stocks were propagated by infecting HFs at a low level. In both cases, cell-associated virus was released by sonication, combined with supernatant virus, then concentrated by ultracentrifugation (20,000 rpm, 2 hours, 4° C. with SW28 swinging bucket rotor [Beckman Coulter]) over a 10% ficoll (HSV-1) or 20% sorbitol (HCMV) cushion. Virus stock titers were determined by plaque assay for HSV-1 or tissue culture infectious dose (TCID50) for HCMV and infections were performed at a multiplicity of infection (MOI) of 3.\n12 hours prior to virus infection or reactivation, cells were treated with either the small molecule drug or DMSO/PBS control at an equivalent volume. […] For infection cycles lasting longer than 24 hours, small molecule drugs were re-added to the cell culture medium every 24 hours. Upon collection, cells were rinsed with PBS, scraped into a microcentrifuge tube, pelleted by centrifugation, and rinsed again with PBS.", "note": "Where two headings read alike, the source gives them in different places.", "data": [{"smiles": "Nc1ccn(C[C@@H](CO)OCP(=O)(O)O)c(=O)n1", "note": "[CDV, cidofovir]", "values": [{"measurement": "UL80 (P16753) protein, numerical value of heatmap FIG. 6C", "setting": "L, timepoint 96", "value": 1.017}, {"measurement": "UL82 (P06726) protein, numerical value of heatmap FIG. 6C", "setting": "L, timepoint 96", "value": 0.9932}, {"measurement": "UL87 (P16730) protein, numerical value of heatmap FIG. 6C", "setting": "L, timepoint 96", "value": 0.3187}, {"measurement": "UL88 (P16731) protein, numerical value of heatmap FIG. 6C", "setting": "L, timepoint 96", "value": 0.6827}, {"measurement": "UL94 (P16800) protein, numerical value of heatmap FIG. 6C", "setting": "L, timepoint 96", "value": 0.8521}, {"measurement": "UL99 (P13200) protein, numerical value of heatmap FIG. 6C", "setting": "L, timepoint 96", "value": 0.9111}, {"measurement": "UL103 (P16734) protein, numerical value of heatmap FIG. 6C", "setting": "L, timepoint 96", "value": 0.899}, {"measurement": "UL117 (P16770) protein, numerical value of heatmap FIG. 6C", "setting": "L, timepoint 96", "value": 0.5858}, {"measurement": "gH (P12824) protein, numerical value of heatmap FIG. 6C", "setting": "L, timepoint 96", "value": 1.268}, {"measurement": "gL (P16832) protein, numerical value of heatmap FIG. 6C", "setting": "L, timepoint 96", "value": 0.676}, {"measurement": "gM (P16733) protein, numerical value of heatmap FIG. 6C", "setting": "L, timepoint 96", "value": 0.9966}, {"measurement": "gN (P16795) protein, numerical value of heatmap FIG. 6C", "setting": "L, timepoint 96", "value": 0.6947}, {"measurement": "sp|P16809|IR11_HCMVA (P16809) protein, numerical value of heatmap FIG. 6C", "setting": "L, timepoint 96", "value": 0.6961}, {"measurement": "CVC1 (P16799) protein, numerical value of heatmap FIG. 6C", "setting": "L, timepoint 120", "value": 0.8775}, {"measurement": "GO (P16750) protein, numerical value of heatmap FIG. 6C", "setting": "L, timepoint 120", "value": 0.821}, {"measurement": "MCP (P16729) protein, numerical value of heatmap FIG. 6C", "setting": "L, timepoint 120", "value": 1.664}, {"measurement": "SCP (Q7M6N6) protein, numerical value of heatmap FIG. 6C", "setting": "L, timepoint 120", "value": 1.225}, {"measurement": "TRM2 (P16792) protein, numerical value of heatmap FIG. 6C", "setting": "L, timepoint 120", "value": 1.244}, {"measurement": "UL22A (P16845) protein, numerical value of heatmap FIG. 6C", "setting": "L, timepoint 120", "value": 1.64}, {"measurement": "UL25 (P16761) protein, numerical value of heatmap FIG. 6C", "setting": "L, timepoint 120", "value": 1.445}, {"measurement": "UL29 (P16764) protein, numerical value of heatmap FIG. 6C", "setting": "L, timepoint 120", "value": 1.329}, {"measurement": "UL30 (P16765) protein, numerical value of heatmap FIG. 6C", "setting": "L, timepoint 120", "value": 0.9125}, {"measurement": "UL31 (P16848) protein, numerical value of heatmap FIG. 6C", "setting": "L, timepoint 120", "value": 1.094}, {"measurement": "UL43 (P16781) protein, numerical value of heatmap FIG. 6C", "setting": "L, timepoint 120", "value": 1.1093}, {"measurement": "UL52 (P16793) protein, numerical value of heatmap FIG. 6C", "setting": "L, timepoint 120", "value": 1.493}, {"measurement": "UL76 (P16725) protein, numerical value of heatmap FIG. 6C", "setting": "L, timepoint 120", "value": 0.7396}, {"measurement": "UL79 (P16752) protein, numerical value of heatmap FIG. 6C", "setting": "L, timepoint 120", "value": 0.8598}, {"measurement": "UL80 (P16753) protein, numerical value of heatmap FIG. 6C", "setting": "L, timepoint 120", "value": 1.249}, {"measurement": "UL82 (P06726) protein, numerical value of heatmap FIG. 6C", "setting": "L, timepoint 120", "value": 1.469}, {"measurement": "UL87 (P16730) protein, numerical value of heatmap FIG. 6C", "setting": "L, timepoint 120", "value": 0.5716}, {"measurement": "UL88 (P16731) protein, numerical value of heatmap FIG. 6C", "setting": "L, timepoint 120", "value": 0.8088}, {"measurement": "UL94 (P16800) protein, numerical value of heatmap FIG. 6C", "setting": "L, timepoint 120", "value": 1.266}, {"measurement": "UL99 (P13200) protein, numerical value of heatmap FIG. 6C", "setting": "L, timepoint 120", "value": 1.628}, {"measurement": "UL103 (P16734) protein, numerical value of heatmap FIG. 6C", "setting": "L, timepoint 120", "value": 1.157}, {"measurement": "UL117 (P16770) protein, numerical value of heatmap FIG. 6C", "setting": "L, timepoint 120", "value": 0.837}, {"measurement": "gH (P12824) protein, numerical value of heatmap FIG. 6C", "setting": "L, timepoint 120", "value": 1.57}, {"measurement": "gL (P16832) protein, numerical value of heatmap FIG. 6C", "setting": "L, timepoint 120", "value": 1.175}, {"measurement": "gM (P16733) protein, numerical value of heatmap FIG. 6C", "setting": "L, timepoint 120", "value": 1.476}, {"measurement": "gN (P16795) protein, numerical value of heatmap FIG. 6C", "setting": "L, timepoint 120", "value": 1.396}, {"measurement": "sp|P16809|IR11_HCMVA (P16809) protein, numerical value of heatmap FIG. 6C", "setting": "L, timepoint 120", "value": 0.7634}, {"measurement": "TRX2 (P16728) protein, numerical value of heatmap FIG. 6C", "setting": "LL, timepoint 24", "value": 0.008754}, {"measurement": "UL69 (P16749) protein, numerical value of heatmap FIG. 6C", "setting": "LL, timepoint 24", "value": 0.1676}, {"measurement": "UL70 (P17149) protein, numerical value of heatmap FIG. 6C", "setting": "LL, timepoint 24", "value": 0.06824}, {"measurement": "UL83 (P06725) protein, numerical value of heatmap FIG. 6C", "setting": "LL, timepoint 24", "value": 0.03389}, {"measurement": "UL132 (P69338) protein, numerical value of heatmap FIG. 6C", "setting": "LL, timepoint 24", "value": 0.04048}, {"measurement": "US15 (P09718) protein, numerical value of heatmap FIG. 6C", "setting": "LL, timepoint 24", "value": 0.5879}, {"measurement": "DUT (P16824) protein, numerical value of heatmap FIG. 6C", "setting": "LL, timepoint 48", "value": 0.2905}, {"measurement": "TRX1 (P16783) protein, numerical value of heatmap FIG. 6C", "setting": "LL, timepoint 48", "value": 0.01277}, {"measurement": "TRX2 (P16728) protein, numerical value of heatmap FIG. 6C", "setting": "LL, timepoint 48", "value": 0.01952}, {"measurement": "UL24 (P16760) protein, numerical value of heatmap FIG. 6C", "setting": "LL, timepoint 48", "value": 0.107}, {"measurement": "UL40 (P16780) protein, numerical value of heatmap FIG. 6C", "setting": "LL, timepoint 48", "value": 0.3905}]}]}
